What was measured:
[1] = target: Synechococcus sp. HPPD "SEQ ID No. 5"; assay: HPLC assay of HPPD activity, in vitro kinetic properties; type: biochemical; conditions: 2 mM HPP
Experimental: Km, Vmax, and kcat values for different HPPD enzyme preparations and Ki, K1=Kon, and K−1=Koff for different HPPD inhibitors were determined using a HPLC assay for measurements of HPPD activity. […] All assays were started by the addition of HPPD enzyme to the assay mixture and stopped at a series of times between 0 and 240 s by addition of 200 μl of the reaction mixture to reaction assay tubes containing 20 μl 10% perchloric acid. Precipitated protein was pelleted by a 5 minute centrifugation at 10,000 g. […] A standard set of concentrations of HGA were used to provide a standard curve in order to calibrate the 292 nm absorbance of the HGA peak versus HGA concentration.
For Km and Vmax value determinations the initial rates of the HPPD reaction at different substrate concentrations were determined from plots of HGA formed versus time and fitted to the Michaelis-Menten equation for unireactant enzymes using the ID Business Solutions Ltd. (idbs.com) XLfit software suite. For the determination of Ki, K1=Kon, and K=−1=Koff values the time-courses of the HPPD reaction at different inhibitor concentrations were fitted to the equations for Mechanism A, competitive inhibition, for tight-binding inhibitors (Cha, S. (1975) Tight-binding inhibitors-I. Kinetic behaviour. Biochemical Pharmacology 24, 2177-2185) using the ID Business Solutions Ltd. XLfit software suite
(§1) In below given table 1, “Km” (Michaelis-Menten constant) means the kinetic parameter that is used to characterise an enzyme, and it is defined as the concentration of substrate that permits half maximal rate of the reaction. Km is further defined as the substrate concentration at which the reaction rate reaches half of its maximum value (Vmax/2) where Vmax has the meaning of being the maximum velocity of the reaction.
(§2) Kon=K1 equals the association rate constant of the […] binding and Koff=K−1 equals the rate constant of the enzyme-inhibitor complex dissociation. Ki defines the inhibition constant.

[2] = tested on: T0 tobacco plants containing FMP38t; assay: Response of T0 tobacco plants expressing the FMP38 HPPD to tembotrione; type: in vivo, Nicotiana tabacum; conditions: 100 g AI/ha, two weeks after the treatment
Description: As an example, rooted plants containing the T-DNA PromCaMV35S-OTP-HIS6-FMP38t-TerCaMV35S, will be transferred to the greenhouse under standard growth conditions. Following a period of acclimation of two weeks, the T0 plants will be treated with a mixture containing 100 g tembotrione/ha prepared from a WP20 (wettable powder 20%) formulation supplemented with ammonium sulfate and methyl ester raps oil. Two weeks after the treatment, the symptoms due to the application of the herbicides will be evaluated. The plants are classified in four categories. The treated plants evaluated as “0” are looking like the untreated tobacco plants. The plants evaluated as “1” display temporarily light bleaching phenotype due to the application of the herbicides. The plants evaluated as “2” display permanent light to strong bleaching symptoms. Finally the plants evaluated as “3” are looking like wild type tobacco plants submitted to the same treatment.

[3] = target: T1, Arabidopsis thaliana HPPD "SEQ ID No. 10" (Arabidopsis thaliana, UniProt P93836); assay: HPLC assay of HPPD activity, in vitro kinetic properties; type: biochemical
T1 construct: Preparation of Synechococcus sp; Ala + 6xHis (N); made in house; host or cells: E. coli K-12 BL21 (pQE30-AtHPPD)
T1 sequence (P93836 with tags, fused parts or gaps): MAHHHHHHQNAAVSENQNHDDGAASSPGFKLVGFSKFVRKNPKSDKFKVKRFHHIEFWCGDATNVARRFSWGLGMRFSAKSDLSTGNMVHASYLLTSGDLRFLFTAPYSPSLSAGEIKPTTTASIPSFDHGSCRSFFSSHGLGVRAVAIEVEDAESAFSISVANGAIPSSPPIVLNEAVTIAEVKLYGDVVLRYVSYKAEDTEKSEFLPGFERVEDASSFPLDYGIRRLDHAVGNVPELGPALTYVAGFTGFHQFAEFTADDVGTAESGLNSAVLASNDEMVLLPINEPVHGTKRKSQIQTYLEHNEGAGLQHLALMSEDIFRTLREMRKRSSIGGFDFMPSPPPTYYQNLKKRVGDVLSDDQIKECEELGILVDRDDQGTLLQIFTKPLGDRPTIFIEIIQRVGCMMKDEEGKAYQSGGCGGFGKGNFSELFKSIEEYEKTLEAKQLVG
Experimental: Km, Vmax, and kcat values for different HPPD enzyme preparations and Ki, K1=Kon, and K−1=Koff for different HPPD inhibitors were determined using a HPLC assay for measurements of HPPD activity. […] All assays were started by the addition of HPPD enzyme to the assay mixture and stopped at a series of times between 0 and 240 s by addition of 200 μl of the reaction mixture to reaction assay tubes containing 20 μl 10% perchloric acid. Precipitated protein was pelleted by a 5 minute centrifugation at 10,000 g.
For Km and Vmax value determinations the initial rates of the HPPD reaction at different substrate concentrations were determined from plots of HGA formed versus time and fitted to the Michaelis-Menten equation for unireactant enzymes using the ID Business Solutions Ltd. (idbs.com) XLfit software suite.
as §1, §2

SMILES: CS(=O)(=O)c1ccc(C(=O)C2C(=O)CCCC2=O)c(Cl)c1COCC(F)(F)F [Tembotrione, 2-[2-chloro-4-(methylsulfonyl)-3-[(2,2,2,-tri-fluoroethoxy)methyl]benzoyl]-1,3-cyclo-hexanedione]
- Ki [1]: 1200 nM
- k1 (Kon) [1]: 41000 M⁻¹ s⁻¹
- k−1 (Koff) [1]: 0.05 s⁻¹
- number of plants in category 0 (looking like the untreated tobacco plants) [2]: 1
- number of plants in category 1 (temporarily light bleaching phenotype) [2]: 1
- number of plants in category 3 (looking like wild type tobacco plants submitted to the same treatment) [2]: 14
- kon ([3]; read-out: k1 (Kon)): 230000 M⁻¹ s⁻¹
- koff ([3]; read-out: k−1 (Koff)): 0.0035 s⁻¹

— patent publication US20150159167A1, “Plants Tolerant to HPPD Inhibitor Herbicides” (Bayer CropScience AG, priority 2009, published 2015)
